Results: PubChem BioAssay AID1996
Values after ≈ are worked out from the molar mass of the structure shown.

Conditions: buffer; pH 7.4; 200.0 µM

Row | SMILES | solubility kinetic [µg/mL]
1 | COc1cccc(OCC(=O)N(C)Cc2nc(-c3ccccc3)no2)c1 | 36.6 (≈ 104 µM)
2 | Cc1ccc(S(=O)(=O)CCSc2nccn2C)cc1 | > 44.5
3 | COc1cccc(C(=O)OCC(=O)NCc2ccc3c(c2)OCO3)c1OC | > 56
4 | COc1ccc(OC)c2nc3c(cc12)CCC3 | 29 (≈ 126 µM)
5 | CN(C(=O)c1ccc2c(c1)OCO2)C1CCCCC1 | 38.4 (≈ 147 µM)
6 | CC(=O)Nc1cc(Br)ccc1O | 32.6 (≈ 142 µM)
7 | N#Cc1c(-c2ccccc2)nc2n1CCS2 | 7.3 (≈ 32.1 µM)
8 | CCc1cccc(C)c1N1C(=O)CC(C)(C)CC1=O | > 38.9
9 | Cc1ccsc1C(=O)OCC(=O)N(Cc1ccccc1)C(C)C | 40.2 (≈ 121 µM)
10 | Cc1cccc(-c2nc(Nc3cccc(O)c3)c3ccccc3n2)c1 | 1 (≈ 3.05 µM)
11 | CCOC(=O)c1ccc(CSC(=N)N)o1 | 31.4 (≈ 138 µM)
12 | COc1ccc(C)cc1NC(=O)NCc1ccco1 | 11 (≈ 42.3 µM)
13 | CC1CNCCN1S(=O)(=O)c1cccc2cnccc12.Cl (stereo unspecified) | > 54.6
14 | O=C(NCCOc1ccccc1)C(=O)c1c[nH]c2ccccc12 | 0.9 (≈ 2.92 µM)
15 | CC(C)OCC(O)CN1CCC(Cc2ccccc2)CC1.Cl (stereo unspecified) | > 49.2
16 | CCCS(=O)(=O)N1CCCC(C(=O)NCC(OC)OC)C1 (stereo unspecified) | 45.2 (≈ 140 µM)
17 | CCOc1ccc(NC(=O)N[C@@H](Cc2ccccc2)C(=O)O)cc1 | > 49.3
18 | Cc1cc(F)ccc1NC(=O)c1cccnc1 | > 34.5
19 | CC1(C)CC(=O)C=C(Nc2ccc(C(=O)O)c(O)c2)C1 | > 41.3
20 | CCSc1c([N+](=O)[O-])c(=O)n(-c2ccccc2)c2ccccc12 | 1.3 (≈ 3.98 µM)
21 | O=[N+]([O-])c1ccccc1S(=O)(=O)NCCSc1ccccc1 | 16.5 (≈ 48.8 µM)

Row | SMILES | solubility kinetic [µg/mL]
22 | O=C(NCCc1ccc(F)cc1)NC12CC3CC(CC(C3)C1)C2 | 6.5 (≈ 20.5 µM)
23 | O=C(NC(=S)NC1CCS(=O)(=O)C1)c1ccccc1F (stereo unspecified) | 44.9 (≈ 142 µM)
24 | CC(C)Oc1ccccc1/C=N/NC(=O)C1CC1 | > 36.9
25 | Fc1cnc(Cl)nc1NC1CCCCC1 | 27.1 (≈ 118 µM)
26 | CC(C)(Oc1ccc(Cl)cc1)C(=O)O/N=C(\N)c1ccncc1 | 34.3 (≈ 103 µM)
27 | NC(=O)COc1ccc2cc(-c3ccccc3)c(=O)oc2c1 | 3.8 (≈ 12.9 µM)
28 | CCCCOCCCNC(=O)N[C@H](C(=O)OC)C(C)CC (stereo partly specified) | > 45.4
29 | COc1cc(OC)cc(C(=O)NCCOC23CC4CC(CC(C4)C2)C3)c1 | 31.3 (≈ 87.1 µM)
30 | O=C(Nc1ccc(S(=O)(=O)Nc2ncccn2)cc1)C12CC3CC(CC(Cl)(C3)C1)C2 | > 67
31 | OC(CN1CCN(c2cccc(Cl)c2)CC1)c1ccc(F)cc1 (stereo unspecified) | 12.2 (≈ 36.4 µM)
32 | COc1ccccc1C1CC(=O)Nc2cc(C)c(C)cc21 (stereo unspecified) | < 0.6
33 | CC(C)Cc1nc2sc3c(SCC(N)=O)ncnc3c2c2c1CCC2 | 0.3 (≈ 0.805 µM)
34 | CCN(CC)c1nc2ccccc2n(Cc2cccc(OC)c2)c1=O | 0.3 (≈ 0.889 µM)
35 | Cc1ccc(O)c(NC(=O)c2onc(C)c2Cl)c1 | 6.2 (≈ 23.2 µM)
36 | O=c1[nH]c(/C=C/c2ccc3c(c2)OCO3)c([N+](=O)[O-])c(=O)[nH]1 | 19.4 (≈ 64 µM)
37 | Cc1ccc(C(=O)OCC(=O)NC(C)c2ccccc2)cc1C (stereo unspecified) | 1.1 (≈ 3.53 µM)
38 | Fc1ccccc1CN1CCN(c2ncccn2)CC1 | 30.1 (≈ 111 µM)
39 | COc1ccccc1CNc1cc(C)ccn1 | 28.8 (≈ 126 µM)
40 | CC(=O)c1sc(-c2ccc(F)cc2)cc1NS(=O)(=O)c1ccccc1 | 0.9 (≈ 2.4 µM)
41 | O=C(c1ccc(Cl)cc1)N1CCC2(CC1)OCCO2 | 39.6 (≈ 141 µM)
42 | O=C(CCNC(=O)c1ccc(Br)cc1)Nc1ncccc1O | 52.3 (≈ 144 µM)

Row | SMILES | solubility kinetic [µg/mL]
43 | CCOc1ccc(C(=O)Nc2cccc3ncccc23)cc1Cl | 1.1 (≈ 3.37 µM)
44 | CCN(C(=O)CSc1nc2scc(-c3ccccc3)c2c(=O)n1C)C1CCS(=O)(=O)C1 (stereo unspecified) | 3.1 (≈ 6.49 µM)
45 | Cc1cc(C)c2c(N)c(C(=O)Nc3ccccc3F)sc2n1 | 0.4 (≈ 1.27 µM)
46 | CCOC(=O)c1ccc(NC(=O)NCc2ccccn2)cc1 | 42.2 (≈ 141 µM)
47 | COC(=O)c1sccc1S(=O)(=O)Nc1ccc(C)cc1 | 5 (≈ 16.1 µM)
48 | CC(=O)c1sc(NC(=O)c2cccs2)nc1C | 2 (≈ 7.51 µM)
49 | O=C(O)COCC(=O)N1CCCN(c2nc3ccc(Cl)cc3s2)CC1 | > 57.6
50 | Nc1ccc2nc(NC(=O)C3CCCCC3)sc2c1 | 30.2 (≈ 110 µM)
51 | CC(=O)SC1CC(=O)N(c2c(C)cccc2C)C1=O (stereo unspecified) | > 41.6
52 | CCCCCCN1C=CC=C/C1=C\C=C(C#N)C#N | 3.9 (≈ 15.4 µM)
53 | Fc1ccccc1CNCCc1ccc2c(c1)OCO2 | 40.5 (≈ 148 µM)
54 | CCN1CCN(CC(=O)c2cc(Cl)ccc2Cl)CC1 | > 45.2
55 | Cl.O=C(CN1CCCC1)Nc1ccc2c(c1)CCC2 | 41.3
56 | O=C(c1ccc(NS(=O)(=O)c2cccc(F)c2)cc1)N1CCCC1 | 51.2 (≈ 147 µM)
57 | COc1ccccc1NC(=O)CSc1nc(SC)ns1 | 32.8 (≈ 100 µM)
58 | O=C(C1CCCCC1)N1CCc2ccccc21 | 27.2 (≈ 119 µM)
59 | CCOC(=O)c1ccccc1NC(=O)c1ccc2nc[nH]c2c1 | 11.3 (≈ 36.5 µM)
60 | CCCC(=O)Nc1nc2c(C)c(Cl)ccc2s1 | < 0.3
61 | Cc1cc(C)n2nc(SCC(=O)Nc3ccc(F)cc3[N+](=O)[O-])nc2n1 | > 56.5
